According to patent publication US6509161B1, “Green fluorescent protein” (Gentronix Limited, priority 2000, dated 2003):

Key:
[1] = Fluorescence polarisation ratio of fluorophores, commercial fluorescence spectrometer with two polarising filters; format: physicochemical; conditions: average of 20 replicate readings, cuvette
Excerpt: A standard commercial fluorescence spectrometer (LS50-B, Perkin Elmer) was used to carry out conventional measurements of fluorescence, scattered light intensity and for obtaining excitation and emission spectra, with a 1 cm path length acrylic cuvette (not shown). A yellow Schott glass filter (not shown) (YG495, thickness=3 mm) was placed within the sample chamber directly in front of the window of a PMT, in order to block excitation light scattered towards the PMT by yeast cells suspended in the cuvette. For fluorescence measurements the excitation and emission wavelengths were 490 and 520 nm respectively. […] Light intensity was recorded in arbitrary units produced directly by the instrument software.
Four fluorophores were chosen, which were close spectroscopic mimics of GFP. […] Using the commercial fluorescence spectrometer (not shown), the fluorescence excitation and emission spectra for each fluorophore and for GFP were obtained. […] HPTSA needed to be used at 20 times the concentration of fluorescein to obtain the same magnitude fluorescence signal.
To measure the fluorescence polarisation ratio (P) of the fluorophores, two polarising filters (not shown) (Grade HN38 polaroid sheet, laminated in rigid acrylic, thickness=3.4 mm) were inserted within the housing 3, one either side of the sample cuvette (Which was used in place of the flow cell 2). […]

[2] = Fluorescence polarisation by flow-injection analysis on the two-PMT apparatus; format: physicochemical; conditions: 488 nm excitation, GFP within whole GM-FF18984 yeast cells (0.005 % MMS, 18 hours), HPTSA 1×10^−7 mol l^−1 in phosphate buffer
Experimental: An air cooled argon ion laser (162LGL, LG Laser Graphics GmbH, Dieburg, Germany), provided a 488 nm excitation light beam of 5 mW after filtering (TEM00>95%, beam diameter 0.67±0.05 mm). The light beam is represented by the arrow 1 in FIG. 1. The light beam 1 was plane polarised (>100:1). A four window quartz fluorescence flow cell 2 with an internal volume of 132 μl, specially constructed by Hellma Ltd, Southend-on-Sea, UK was housed in a cubic black plastic mounting block 3 (30×30×30 mm). The mounting block 3 was built at the University of Manchester Institute of Science and Technology. […]
A 488 nm interference filter 7, (3 nm half bandwidth), was used to filter the excitation light beam 1. […] One filter 8, 9 was rotated through 90° with respect to the other, such that one PMT 5 recorded the fluorescence intensity emitted polarised parallel with respect to the excitation beam (Ill), and the other PMT 6 recorded that emitted polarised perpendicular with respect to the excitation beam (Il). […] Additional filters were optimised and used in conjunction with the polarising filters to allow the laser-induced GFP fluorescence at 517 nm to be measured, whilst rejecting the high intensity laser light at 488 nm scattered towards the detector by yeast cells suspended in the stream of liquid passing through the flow cell. […]

SMILES: O=S(=O)([O-])c1cc(O)c2ccc3c(S(=O)(=O)[O-])cc(S(=O)(=O)[O-])c4ccc1c2c34.[Na+].[Na+].[Na+] [HPTSA, 8-hydroxypyrene-1,3,6-trisulfonic acid trisodium salt]
- difference between Ill and Il [1]: less than 0.5%
- average fluorescence polarisation ratio (P) [2]: ≈ 0
